From patent publication US6914045B2, “Glycopeptide antibiotics” (Wyeth Holdings Corporation, priority 2001, dated 2005)

Tests used:
Assay in all cases: in vitro antibacterial evaluation, MIC by broth dilution
Assay type in all cases: cell-based
Enterococcus sp. = conditions: broth dilution, 18 hours at 35° C.
Summary of the method: (§1)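 MIC = lowest antibiotic concentration preventing visible growth; inoculum 5×10^5 CFU/mL; drug range 64-0.06 μg/mL; Muller-Hinton II […]; NCCLS M7-A2 guidance.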

Escherichia coli = conditions: for MIC Escherichia coli (ATCC 25922): strain ATCC 25922, 18 hours at 35° C.; for MIC Escherichia coli (GC 4559): strain GC 4559, 18 hours at 35° C.; for MIC Escherichia coli (GC 4560): strain GC 4560, 18 hours at 35° C.
Summary of the method: as §1

Staphylococcus sp. = conditions: broth dilution, 18 hours at 35° C.; for MIC Staphylococcus aureus (GC 1131): strain GC 1131; for MIC Staphylococcus aureus (ATCC 29213): strain ATCC 29213; for MIC Staphylococcus aureus (GC 3051): strain GC 3051; for MIC Staphylococcus aureus (GC 3053): strain GC 3053; for MIC Staphylococcus aureus (GC 4541): strain GC 4541; for MIC Staphylococcus aureus (GC 4542): strain GC 4542; for MIC Staphylococcus aureus (GC 4544): strain GC 4544; for MIC Staphylococcus aureus (GC 4545): strain GC 4545; for MIC Staphylococcus haemolyticus (GC 4546): strain GC 4546; for MIC Coagulase Negative Staphylococcus (GC 4547): strain GC 4547; for MIC Coagulase Negative Staphylococcus (GC 4548): strain GC 4548; for MIC Coagulase Negative Staphylococcus (GC 4549): strain GC 4549; for MIC Coagulase Negative Staphylococcus (GC 4551): strain GC 4551; for MIC Coagulase Negative Staphylococcus (GC 6257): strain GC 6257
Summary of the method: as §1

Streptococcus sp. = conditions: broth dilution, 18 hours at 35° C.
Summary of the method: as §1

COc1cc(C2OCC3OC(OC4C(CO)OC(Oc5ccc(CC6NC(=O)C(C(C)c7ccccc7)NC(=O)CNC(=O)C(CO)NC(=O)C(C(O)C7CNC(=N)N7C7OC(CO)C(O)C(O)C7O)NC(=O)C(C(O)C7CNC(=N)N7)NC6=O)cc5)C(O)C4O)C(O)C(O)C3O2)cc([N+](=O)[O-])c1O (centres unmarked) [Example 169]
> 64 µg/mL: MIC Enterococcus faecalis (GC 2242) (Enterococcus sp.; inoculum 5×10^5 CFU/mL, strain GC 2242)
>64 µg/mL: MIC Enterococcus faecalis (ATCC 29212) (Enterococcus sp.; inoculum 5×10^5 CFU/mL, strain ATCC 29212) | MIC Enterococcus faecium (GC 2243) (Enterococcus sp.; inoculum 5×10^5 CFU/mL, strain GC 2243) | MIC Enterococcus faecalis (GC 2691) (Enterococcus sp.; inoculum 5×10^5 CFU/mL, strain GC 2691) | MIC Enterococcus faecalis (GC 3059) (Enterococcus sp.; inoculum 5×10^5 CFU/mL, strain GC 3059) | MIC Enterococcus faecalis (GC 4552) (Enterococcus sp.; inoculum 5×10^5 CFU/mL, strain GC 4552) | MIC Enterococcus faecalis (GC 4553) (Enterococcus sp.; inoculum 5×10^5 CFU/mL, strain GC 4553) | MIC Enterococcus faecalis (GC 4554) (Enterococcus sp.; inoculum 5×10^5 CFU/mL, strain GC 4554) | MIC Enterococcus faecium (GC 4556) (Enterococcus sp.; inoculum 5×10^5 CFU/mL, strain GC 4556) | MIC Enterococcus avium (GC 4558) (Enterococcus sp.; inoculum 5×10^5 CFU/mL, strain GC 4558) | MIC Enterococcus faecalis (GC 6189) (Enterococcus sp.; inoculum 5×10^5 CFU/mL, strain GC 6189) | MIC Enterococcus faecalis (ATCC 29212) (Enterococcus sp.; strain ATCC 29212) | MIC Enterococcus faecalis (GC 2242) (Enterococcus sp.; strain GC 2242) | MIC Enterococcus faecium (GC 2243) (Enterococcus sp.; strain GC 2243) | MIC Enterococcus faecalis (GC 2691) (Enterococcus sp.; strain GC 2691) | MIC Enterococcus faecalis (GC 3059) (Enterococcus sp.; strain GC 3059) | MIC Enterococcus faecalis (GC 4552) (Enterococcus sp.; strain GC 4552) | MIC Enterococcus faecalis (GC 4553) (Enterococcus sp.; strain GC 4553) | MIC Enterococcus faecalis (GC 4554) (Enterococcus sp.; strain GC 4554) | MIC Enterococcus faecium (GC 4556) (Enterococcus sp.; strain GC 4556) | MIC Enterococcus avium (GC 4558) (Enterococcus sp.; strain GC 4558) | MIC Enterococcus faecalis (GC 6189) (Enterococcus sp.; strain GC 6189) | MIC Escherichia coli (ATCC 25922) (Escherichia coli) | MIC Escherichia coli (GC 4559) (Escherichia coli) | MIC Staphylococcus aureus (GC 3053) (Staphylococcus sp.) | MIC Coagulase Negative Staphylococcus (GC 4551) (Staphylococcus sp.)
16 µg/mL: MIC Coagulase Negative Staphylococcus (GC 4549) (Staphylococcus sp.) | MIC Streptococcus pyogenes (GC 4563) (Streptococcus sp.; inoculum 5×10^5 CFU/mL, strain GC 4563) | MIC Streptococcus pyogenes (GC 4563) (Streptococcus sp.; strain GC 4563)
32 µg/mL: MIC Enterococcus faecium (GC 4557) (Enterococcus sp.; inoculum 5×10^5 CFU/mL, strain GC 4557) | MIC Enterococcus faecium (GC 4557) (Enterococcus sp.; strain GC 4557) | MIC Staphylococcus aureus (GC 1131) (Staphylococcus sp.; inoculum 5×10^5 CFU/mL) | MIC Staphylococcus aureus (ATCC 29213) (Staphylococcus sp.) | MIC Staphylococcus aureus (GC 1131) (Staphylococcus sp.) | MIC Staphylococcus aureus (GC 3051) (Staphylococcus sp.) | MIC Staphylococcus aureus (GC 4541) (Staphylococcus sp.) | MIC Staphylococcus aureus (GC 4542) (Staphylococcus sp.) | MIC Staphylococcus aureus-SMITH (GC 4543) (Staphylococcus sp.; strain GC 4543) | MIC Staphylococcus aureus (GC 4544) (Staphylococcus sp.) | MIC Staphylococcus aureus (GC 4545) (Staphylococcus sp.) | MIC Staphylococcus haemolyticus (GC 4546) (Staphylococcus sp.) | MIC Coagulase Negative Staphylococcus (GC 4547) (Staphylococcus sp.) | MIC Coagulase Negative Staphylococcus (GC 4548) (Staphylococcus sp.) | MIC Streptococcus agalactiae (GC 4564) (Streptococcus sp.; inoculum 5×10^5 CFU/mL, strain GC 4564) | MIC Streptococcus agalactiae (GC 4564) (Streptococcus sp.; strain GC 4564)
8 µg/mL: MIC Escherichia coli (GC 4560) (Escherichia coli) | MIC Coagulase Negative Staphylococcus (GC 6257) (Staphylococcus sp.) | MIC Streptococcus pneumoniae (ATCC 6301) (Streptococcus sp.; inoculum 5×10^5 CFU/mL, strain ATCC 6301) | MIC Streptococcus pneumoniae (GC 1894) (Streptococcus sp.; inoculum 5×10^5 CFU/mL, strain GC 1894) | MIC Streptococcus pneumoniae (GC 4565) (Streptococcus sp.; inoculum 5×10^5 CFU/mL, strain GC 4565) | MIC Streptococcus pneumoniae (ATCC 6301) (Streptococcus sp.; strain ATCC 6301) | MIC Streptococcus pneumoniae (GC 1894) (Streptococcus sp.; strain GC 1894) | MIC Streptococcus pneumoniae (GC 4565) (Streptococcus sp.; strain GC 4565)

COc1cc(OC)cc(C2OC3C(OC4C(CO)OC(Oc5ccc(CC6NC(=O)C(C(C)c7ccccc7)NC(=O)CNC(=O)C(CO)NC(=O)C(C(O)C7CNC(=N)N7C7OC(CO)C(O)C(O)C7O)NC(=O)C(C(O)C7CNC(=N)N7)NC6=O)cc5)C(O)C4O)OC(CO)C(O)C3O2)c1 (centres unmarked) [Example 150a]
64 µg/mL: MIC Enterococcus avium (GC 4558) (Enterococcus sp.; Enterococcus avium (GC 4558)) | MIC Enterococcus avium (GC 4558) (Enterococcus sp.; strain GC 4558)
8 µg/mL: MIC Coagulase Negative Staphylococcus (GC 4548) (Staphylococcus sp.) | MIC Coagulase Negative Staphylococcus (GC 4549) (Staphylococcus sp.) | MIC Coagulase Negative Staphylococcus (GC 6257) (Staphylococcus sp.) | MIC Streptococcus pneumoniae (ATCC 6301) (Streptococcus sp.; Streptococcus pneumoniae (ATCC 6301)) | MIC Streptococcus pneumoniae (GC 1894) (Streptococcus sp.; Streptococcus pneumoniae (GC 1894)) | MIC Streptococcus pneumoniae (ATCC 6301) (Streptococcus sp.; strain ATCC 6301) | MIC Streptococcus pneumoniae (GC 1894) (Streptococcus sp.; strain GC 1894)
>64 µg/mL: MIC Enterococcus faecalis (ATCC 29212) (Enterococcus sp.; Enterococcus faecalis (ATCC 29212)) | MIC Enterococcus faecalis (GC 2242) (Enterococcus sp.; Enterococcus faecalis (GC 2242)) | MIC Enterococcus faecalis (GC 2691) (Enterococcus sp.; Enterococcus faecalis (GC 2691)) | MIC Enterococcus faecalis (GC 3059) (Enterococcus sp.; Enterococcus faecalis (GC 3059)) | MIC Enterococcus faecalis (GC 4552) (Enterococcus sp.; Enterococcus faecalis (GC 4552)) | MIC Enterococcus faecalis (GC 4553) (Enterococcus sp.; Enterococcus faecalis (GC 4553)) | MIC Enterococcus faecalis (GC 4554) (Enterococcus sp.; Enterococcus faecalis (GC 4554)) | MIC Enterococcus faecalis (GC 6189) (Enterococcus sp.; Enterococcus faecalis (GC 6189)) | MIC Enterococcus faecium (GC 2243) (Enterococcus sp.; Enterococcus faecium (GC 2243)) | MIC Enterococcus faecium (GC 4556) (Enterococcus sp.; Enterococcus faecium (GC 4556)) | MIC Enterococcus faecalis (ATCC 29212) (Enterococcus sp.; strain ATCC 29212) | MIC Enterococcus faecalis (GC 2242) (Enterococcus sp.; strain GC 2242) | MIC Enterococcus faecium (GC 2243) (Enterococcus sp.; strain GC 2243) | MIC Enterococcus faecalis (GC 2691) (Enterococcus sp.; strain GC 2691) | MIC Enterococcus faecalis (GC 3059) (Enterococcus sp.; strain GC 3059) | MIC Enterococcus faecalis (GC 4552) (Enterococcus sp.; strain GC 4552) | MIC Enterococcus faecalis (GC 4553) (Enterococcus sp.; strain GC 4553) | MIC Enterococcus faecalis (GC 4554) (Enterococcus sp.; strain GC 4554) | MIC Enterococcus faecium (GC 4556) (Enterococcus sp.; strain GC 4556) | MIC Enterococcus faecalis (GC 6189) (Enterococcus sp.; strain GC 6189) | MIC Escherichia coli (ATCC 25922) (Escherichia coli) | MIC Escherichia coli (GC 4559) (Escherichia coli)
32 µg/mL: MIC Staphylococcus aureus (GC 1131) (Staphylococcus sp.; inoculum 5×10^5 CFU/mL) | MIC Staphylococcus aureus (ATCC 29213) (Staphylococcus sp.) | MIC Staphylococcus aureus (GC 1131) (Staphylococcus sp.) | MIC Staphylococcus aureus (GC 3051) (Staphylococcus sp.) | MIC Staphylococcus aureus (GC 3053) (Staphylococcus sp.) | MIC Staphylococcus aureus (GC 4542) (Staphylococcus sp.) | MIC Staphylococcus aureus (GC 4544) (Staphylococcus sp.) | MIC Coagulase Negative Staphylococcus (GC 4551) (Staphylococcus sp.) | MIC Streptococcus agalactiae (GC 4564) (Streptococcus sp.; Streptococcus agalactiae (GC 4564)) | MIC Streptococcus agalactiae (GC 4564) (Streptococcus sp.; strain GC 4564)
16 µg/mL: MIC Enterococcus faecium (GC 4557) (Enterococcus sp.; Enterococcus faecium (GC 4557)) | MIC Enterococcus faecium (GC 4557) (Enterococcus sp.; strain GC 4557) | MIC Escherichia coli (GC 4560) (Escherichia coli) | MIC Staphylococcus aureus (GC 4541) (Staphylococcus sp.) | MIC Staphylococcus aureus-SMITH (GC 4543) (Staphylococcus sp.; strain GC 4543) | MIC Staphylococcus aureus (GC 4545) (Staphylococcus sp.) | MIC Staphylococcus haemolyticus (GC 4546) (Staphylococcus sp.) | MIC Coagulase Negative Staphylococcus (GC 4547) (Staphylococcus sp.) | MIC Staphylococcus aureus-SMITH (GC 4543) (Staphylococcus sp.; strain SMITH GC 4543) | MIC Streptococcus pneumoniae (GC 4565) (Streptococcus sp.; Streptococcus pneumoniae (GC 4565)) | MIC Streptococcus pyogenes (GC 4563) (Streptococcus sp.; Streptococcus pyogenes (GC 4563)) | MIC Streptococcus pyogenes (GC 4563) (Streptococcus sp.; strain GC 4563) | MIC Streptococcus pneumoniae (GC 4565) (Streptococcus sp.; strain GC 4565)
